Like-named read-outs stand apart in the source and are kept apart here.
How the values were obtained:
[1] = Evaluation of % alum binding at pH 6.5 (HPLC-MS/MS of supernatant); type: physicochemical; settings: 1 mg/mL formulation with aluminum hydroxide adjuvant in Histidine buffer, stirred at 25° C. overnight, control without aluminum hydroxide
Method: Evaluation of % Alum Binding
The binding of certain compounds of Formula (I) to aluminum-containing adjuvants at pH 6.5 was evaluated using HPLC-MS/MS to monitor the presence of the compound of Formula (I) in the supernatant.
Evaluation of Binding at pH 6.5
To a mixture of compound (4 mg/mL) in Endotox free water was added 1 M NaOH (2.1 eq) to achieve a clear solution. A mixture of the resulting solution (0.5 mL), Endotox free water (0.86 mL), 100 mM Histidine buffer (0.2 mL) and aluminum hydroxide adjuvant (13.78 mg/mL, 0.44 mL) was stirred at 25° C. overnight to result in a 1 mg/mL formulation. An additional 1 mg/mL formulation was prepared as control in 10 mM Histidine buffer without aluminum hydroxide.
Three 50 uL aliquots of each formulation (in Histidine buffer with and without aluminum hydroxide) were centrifuged at 14,000 rpm for 10 minutes at 4° C. The supernatant was diluted, treated with an internal standard and analyzed by HPLC-MS/MS using a ballistic gradient (from 50% CH3CN-1.0% NH4OH to 95% CH3CN-1.0% NH4OH in 1.5 minutes) on a C8 ([…]×2.1 mm) Waters XBridge column at ambient temperature. The supernatant concentration was determined for each formulation. The fraction in the aluminum hydroxide formulation bound to alum was calculated as follows: […]

human TLR2 = human TLR2 (Homo sapiens, UniProt O60603); test: Reporter gene assay: HEK 293 cells stably transfected with human TLR2 and NF-kB-driven luciferase reporter; settings: for Emax: HEK293, 7 h, read-out: Hek-TLR2 (% Eff); for EC50: HEK 293 stably transfected with human TLR2 and pNifty-Luciferase, 7 hours incubation, concentration giving 50% of maximal signal
Sequence of human TLR2 (O60603 21-784): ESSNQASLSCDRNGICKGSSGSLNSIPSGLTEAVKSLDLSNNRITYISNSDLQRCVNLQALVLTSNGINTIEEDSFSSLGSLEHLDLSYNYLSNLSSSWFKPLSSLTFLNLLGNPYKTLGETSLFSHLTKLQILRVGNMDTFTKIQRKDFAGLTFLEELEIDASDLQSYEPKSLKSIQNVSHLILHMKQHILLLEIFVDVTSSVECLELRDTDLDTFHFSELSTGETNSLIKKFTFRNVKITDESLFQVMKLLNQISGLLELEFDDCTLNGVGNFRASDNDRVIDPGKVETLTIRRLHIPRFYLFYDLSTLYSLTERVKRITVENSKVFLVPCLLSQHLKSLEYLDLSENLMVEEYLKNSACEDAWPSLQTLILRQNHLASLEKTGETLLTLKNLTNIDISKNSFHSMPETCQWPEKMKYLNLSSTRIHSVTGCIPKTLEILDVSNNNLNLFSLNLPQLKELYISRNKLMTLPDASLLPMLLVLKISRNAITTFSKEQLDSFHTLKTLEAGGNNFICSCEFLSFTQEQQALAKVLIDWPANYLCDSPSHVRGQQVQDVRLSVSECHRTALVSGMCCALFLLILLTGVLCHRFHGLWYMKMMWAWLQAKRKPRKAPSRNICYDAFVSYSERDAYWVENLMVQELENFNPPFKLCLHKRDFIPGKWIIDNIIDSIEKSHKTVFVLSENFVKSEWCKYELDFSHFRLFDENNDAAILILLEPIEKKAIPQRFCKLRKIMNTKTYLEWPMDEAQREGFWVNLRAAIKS

Row | Alum Binding % [1] | Emax (human TLR2) | EC50 (human TLR2; Hek-TLR2 μM (EC50)) | Compound | Hek-TLR2 (% Eff) (human TLR2; % Eff relative to Pam3CSK4, HEK 293 human TLR2 NF-kB luciferase) | EC50 (human TLR2; read-out: Hek-TLR2 μM (EC50))
1 | >80% | 84% | 552 nM | CCCCCCCCCCCCOC[C@H](CSC[C@H](N)C(=O)NCCOCCOCCOCCP(=O)(O)O)OCCCCCCCCCCCC [Example 20, (14R,18R)-14-amino-18-(dodecyloxy)-13-oxo-3,6,9,20-tetraoxa-16-thia-12-azadotriacontylphosphonic acid] | – | –
2 | >80% | 103% | 119 nM | CCCCCCCCCCCC(=O)OC[C@H](CSC[C@H](N)C(=O)NCCOCCP(=O)(O)O)OC(=O)CCCCCCCCCCC [Example 3, (8R,12R)-8-amino-12-(dodecanoyloxy)-7,15-dioxo-3,14-dioxa-10-thia-6-azahexacosylphosphonic acid] | – | –
3 | >80% | – | – | CCCCCCCCCCCC(=O)OC[C@H](CSC[C@H](N)C(=O)NCCOCCOCCP(=O)(O)O)OC(=O)CCCCCCCCCCC [Example 5, (11R,15R)-11-amino-15-(dodecanoyloxy)-10,18-dioxo-3,6,17-trioxa-13-thia-9-azanonacosylphosphonic acid] | – | –
4 | >80% | 28% | 1750 nM | CCCCCCCCCCCCOC[C@H](CSC[C@H](N)C(=O)NCCOCCOCCOCCP(=O)(O)O)NC(=O)CCCCCCCCCCC [Example 26, ((14R,18R)-14-amino-18-dodecanamido-13-oxo-3,6,9,20-tetraoxa-16-thia-12-azadotriacontyl)phosphonic acid] | – | –
5 | >80% | – | – | CCCCCCCCCCCC(=O)OC[C@H](CSC[C@H](N)C(=O)NC1(COCCCP(=O)(O)O)CC1)OC(=O)CCCCCCCCCCC [Example 15, 3-((1-((R)-2-amino-3-((R)-2,3-bis(dodecanoyloxy)propylthio)propanamido)cyclopropyl)methoxy)propylphosphonic acid] | – | –
6 | – | 52% | 1910 nM | CCCCCCCCCCCCOC[C@H](CSC[C@H](N)C(=O)N[C@@H](CO)C(=O)NCCOCCOCCP(=O)(O)O)OCCCCCCCCCCCC [Example 80, ((11S,14R,18R)-14-amino-18-(dodecyloxy)-11-(hydroxymethyl)-10,13-dioxo-3,6,20-trioxa-16-thia-9,12-diazadotriacontyl)phosphonic acid] | – | –
7 | – | 121% | 710 nM | CCCCCCCCCCCC(=O)OC[C@H](CSC[C@H](N)C(=O)NCCCN1CCOCC1)OC(=O)CCCCCCCCCCC [Example 59, (R)-3-(((R)-2-amino-3-((3-morpholinopropyl)amino)-3-oxopropyl)thio)propane-1,2-diyl didodecanoate] | – | –
8 | – | 104% | 4940 nM | CCCCCCCCCCCCCCCC(=O)N[C@@H](CSC[C@@H](COC(=O)CCCCCCCCCCC)OC(=O)CCCCCCCCCCC)C(=O)N[C@@H](CO)C(=O)NCCOCCOCCOCCC(=O)O [Example 89, (15S,18R,22R)-22-(dodecanoyloxy)-15-(hydroxymethyl)-14,17,25-trioxo-18-palmitamido-4,7,10,24-tetraoxa-20-thia-13,16-diazahexatriacontan-1-oic acid] | – | –
9 | – | 100% | 38 nM | CCCCCCCCCCCC(=O)OC[C@H](CSC[C@H](N)C(=O)NCCOCCOCCOCCOCCP(=O)(O)O)OC(=O)CCCCCCCCCCC [Example 77, ((17R,21R)-17-amino-21-(dodecanoyloxy)-16,24-dioxo-3,6,9,12,23-pentaoxa-19-thia-15-azapentatriacontyl)phosphonic acid] | – | –
10 | – | – | – | (4R,7S,10R,14R)-10-amino-4-carbamoyl-7-ethyl-6,9,17-trioxo-14-(palmitoyloxy)-16-oxa-12-thia-5,8-diazadotriacontan-1-oic acid [Example 48] | (106%) | 1360 nM
11 | – | 99% | 280 nM | CCCCCCCCCCNC(=O)OC[C@H](CSC[C@H](NC(=O)CCCCC)C(=O)NCCOCCOCCOCCP(=O)(O)O)OC(=O)NCCCCCCCCCC [Example 92, ((14R,18R)-18-((decylcarbamoyl)oxy)-14-hexanamido-13,21-dioxo-3,6,9,20-tetraoxa-16-thia-12,22-diazadotriacontyl)phosphonic acid] | – | –
12 | – | 153% | 19.2 nM | CCCCCCCCCCCC(=O)OC[C@H](CSC[C@H](N)C(=O)N[C@@H](C)COCCCP(=O)(O)O)OC(=O)CCCCCCCCCCC [Example 14, (6S,9R,13R)-9-amino-13-(dodecanoyloxy)-6-methyl-8,16-dioxo-4,15-dioxa-11-thia-7-azaheptacosylphosphonic acid] | – | –
13 | >80% | – | – | CCCCCCCCCCCC(=O)OC[C@H](CSC[C@H](N)C(=O)NCCCC(F)(F)P(=O)(O)O)OC(=O)CCCCCCCCCCC [Example 19, 4-((R)-2-amino-3-((R)-2,3-bis(dodecanoyloxy)propylthio)propanamido)-1,1-difluorobutylphosphonic acid] | – | –
14 | – | 54% | 15500 nM | CCCCCCCCCCCC(=O)OC[C@H](CSC[C@H](N)C(=O)NC(C)(C)CO)OC(=O)CCCCCCCCCCC [Example 43, (R)-3-(((R)-2-amino-3-((1-hydroxy-2-methylpropan-2-yl)amino)-3-oxopropyl)thio)propane-1,2-diyl didodecanoate] | – | –
15 | – | 77% | 4080 nM | CCCCCCCCCCCC(=O)OC[C@H](CSC[C@H](N)C(=O)NCCc1ccc(Oc2ccccc2)cc1)OC(=O)CCCCCCCCCCC [Example 68, (R)-3-(((R)-2-amino-3-oxo-3-((4-phenoxyphenethyl)amino)propyl)thio)propane-1,2-diyl didodecanoate] | – | –
16 | – | 74% | 1850 nM | CCCCCCCCCCCCOC[C@H](CSC[C@H](N)C(=O)N[C@@H](C)COCCOCCOCCP(=O)(O)O)OCCCCCCCCCCCC [Example 29, ((11S,14R,18R)-14-amino-18-(dodecyloxy)-11-methyl-13-oxo-3,6,9,20-tetraoxa-16-thia-12-azadotriacontyl)phosphonic acid] | – | –
17 | – | 98% | 810 nM | CCCCCCCCCCCC(=O)OC[C@H](CSC[C@H](N)C(=O)NCCCOCCCCOCCCN)OC(=O)CCCCCCCCCCC [Example 8, (2R,6R)-6,20-diamino-7-oxo-12,17-dioxa-4-thia-8-azaicosane-1,2-diyl didodecanoate] | – | –
18 | – | 77% | 610 nM | CCCCCCCCCCCCOC[C@H](CSC[C@H](N)C(=O)NCCOCCOCCOCCP(=O)(O)O)OC(=O)CCCCCCCCCCC [Example 27, ((14R,18R)-14-amino-18-(dodecanoyloxy)-13-oxo-3,6,9,20-tetraoxa-16-thia-12-azadotriacontyl)phosphonic acid] | – | –
19 | >80% | 96% | 270 nM | CCCCCCCCCCCC(=O)OC[C@H](CSC[C@H](N)C(=O)NCCOCCOCCOCCP(=O)(O)O)OC(=O)CCCCCCCCCCC [Example 18, (14R,18R)-14-amino-18-(dodecanoyloxy)-13,21-dioxo-3,6,9,20-tetraoxa-16-thia-12-azadotriacontylphosphonic acid] | – | –
20 | – | 37% | 990 nM | CCCCCCCCCCCCOC[C@H](CSC[C@H](N)C(=O)N[C@@H](C)COCCOCCOCCP(=O)(O)O)NC(=O)CCCCCCCCCCC [Example 28, ((11S,14R,18R)-14-amino-18-dodecanamido-11-methyl-13-oxo-3,6,9,20-tetraoxa-16-thia-12-azadotriacontyl)phosphonic acid] | – | –
21 | – | 92% | 2640 nM | CCCCCCCCCCCCCCCC(=O)N[C@@H](CSC[C@@H](COC(=O)NCCCCCCCCCC)OC(=O)NCCCCCCCCCC)C(=O)NCCOCCOCCOCCP(=O)(O)O [Example 39, (14R,18R)-18-(decylcarbamoyloxy)-13,21-dioxo-14-palmitamido-3,6,9,20-tetraoxa-16-thia-12,22-diazadotriacontylphosphonic acid] | – | –
22 | – | 84% | 830 nM | CCCCCCCCCCNC(=O)OC[C@H](CSC[C@H](NC(C)=O)C(=O)NCCOCCOCCOCCP(=O)(O)O)OC(=O)NCCCCCCCCCC [Example 82, ((14R,18R)-14-acetamido-18-((decylcarbamoyl)oxy)-13,21-dioxo-3,6,9,20-tetraoxa-16-thia-12,22-diazadotriacontyl)phosphonic acid] | – | –

— US9365506B2, “Compounds and compositions as TLR2 agonists” (NOVARTIS AG, priority 2010, dated 2016)
